Where two headings read alike, the source gives them in different places. Ends that are not written are not given here. Peptide text beside a SMILES is read from it. * marks the point of attachment. Cbz = O=C(OCc1ccccc1)*
Assays:
[1] = In vitro peptide degradation assay with mass spectrometry, immature DC extracts; type: in vitro ADME, Human; conditions: immature DC whole cell extracts, 120 minutes, pH7.4, pH5.5 and pH4.0, 37°C; LC-MS cleavage patterns; representative of two experiments
[2] = Intracellular stability of optimal epitopes, immature DC extracts; type: in vitro ADME, Human; conditions: RP-HPLC; for half-life: human, cells or culture medium, 1nmol peptide, 15μg immature DC whole cell extract, aliquots 0, 10, 30, 60 minutes, one-phase exponential decay; for stability rate at pH4.0 relative to pH7.4: immature DC extract, pH4.0, 37°C, 60-minute incubation, three independent experiments
Experimental: The proteolytic activities of cathepsin S (cell, 50μM; extracts, 10μM Z-VVR-AMC), omni cathepsins (cell, 50μM; extracts, 50μM Z-FR-AMC), cathepsin D&E (extracts, 10μM Mca-[…]-Dnp, Enzo Life Sciences), and cathepsin B (extracts, 50μM Z-RR-AMC, Bachem) were measured by cleavage of peptide-specific fluorogenic substrates. […] For cell extracts, equivalent amounts as determined by total protein concentration were used in reaction buffer (50mM sodium chloride, 50mM potassium phosphate, 2mM DTT, 2mM EDTA; pH 7.4, pH5.5 or pH4.0, respectively). The rate of fluorescence emission, which is proportional to the proteolytic activity, was measured every 5 minutes at 37°C in a Victor-3 Plate Reader (Perkin Elmer).
One nmol of highly purified peptide was degraded in 15μg of whole cell extracts at 37°C in degradation buffer at pH7.4 or pH4.0 [37]. Aliquots were taken at 0, 10, 30, and 60 minutes, and the reaction was stopped with 2.5μL of 100% TFA. The remaining peptide at each time point was quantified by reversed-phase HPLC (RP-HPLC; Waters). 100% represents the amount of peptide detected at time point 0 calculated as the area under the peptide peak. A stability rate of each peptide was calculated by a nonlinear regression (one-phase exponential decay) of the degradation profile obtained over a 60-minute incubation. Peptides incubated in buffer without cell extracts were used as controls.

[3] = system: immature Møs presenting to epitope-specific CTL clones; assay: ELISPOT cross-presentation assay with immature Møs; type: cell-based, Human; conditions: IFN-gamma ELISPOT, n≥5 donors; for change of B57-ISW9 cross-presentation upon inhibitor pretreatment: immature Møs pre-incubated 45 minutes with 10μM MG132 or 5μM E64 before p24 protein; for change of B57-KF11 CTL responses upon inhibitor pretreatment, decrease / change of B57-TW10 CTL responses upon inhibitor pretreatment, decrease: immature Møs pre-incubated with 10μM MG132, epoxomicin or 5μM E64 before p24 protein
Experimental: (§1) Human peripheral blood mononuclear cells (PBMCs) were isolated by Ficoll-Hypaque (Sigma-Aldrich) density centrifugation. Monocytes were enriched using CD14+ magnetic isolation kits (StemCell) and differentiated into DCs and Møs during a 6-day culture. DCs were cultured in AIM-V media with 1% human serum AB (Gemini Bio-Products) supplemented with 20ng/mL IL-4 and 10ng/mL GM-CSF (CellGenix). On days 2 and 4, fresh IL-4 and GM-CSF were added. Møs were cultured in ultra low attachment plates (Corning) in AIM-V media with 10% human serum AB. Where indicated, maturation of DCs and Møs was induced by TLR ligand stimulation with 2μg/mL LPS, 1μg/mL CL097, or 1μg/mL R848 (Invivogen) for 2 days. Epitope-specific CTL clones were maintained in the presence of 50U/mL IL-2, using 0.1μg/mL CD3-specific mAb 12F6, and irradiated feeder cells as stimulus for T cell proliferation.
(§2) Immature DCs and Møs were exposed to recombinant HIV-1 p24-protein, HIV-1 p55-protein or control protein (Protein Sciences Corporation, USA) for 1hr at 37°C. Where indicated, cells were pre-incubated for 45 minutes with inhibitors for proteasome (10μM MG132 (Enzo Life Sciences)) or cysteine proteases (5μM E64 (Sigma-Aldrich)). Cells pulsed with equivalent molar concentrations of the optimal epitopes were used as controls for antigen presentation and CTL clone specificity. DCs and Møs were thoroughly washed and cultured overnight with epitope-specific CTL clones at a 2:1 effector-to-target ratio in 96-well plates (Millipore) coated with anti-IFN-y mAb 1-D1K (Mabtech). ELISPOT plates were washed and developed as described previously.

[4] = system: immature DCs presenting to epitope-specific CTL clones; assay: ELISPOT cross-presentation assay with immature DCs; type: cell-based, Human; conditions: IFN-gamma ELISPOT, n≥5 donors; for change of B57-KF11 cross-presentation (CTL response) upon inhibitor pretreatment, increase: immature DCs pre-incubated 45 minutes with 10μM MG132, 5μM E64 or epoxomicin before p24 protein; for change of B57-ISW9 cross-presentation (CTL response) upon inhibitor pretreatment, increase: immature DCs pre-incubated 45 minutes with 10μM MG132 or 5μM E64 before p24 protein
Experimental: as §1, §2

[5] = Intracellular stability of optimal epitopes, DC and Mø extracts; type: in vitro ADME, Human; conditions: 37°C
Experimental: One nmol of highly purified peptide was degraded in 15μg of whole cell extracts at 37°C in degradation buffer at pH7.4 or pH4.0 [37]. Aliquots were taken at 0, 10, 30, and 60 minutes, and the reaction was stopped with 2.5μL of 100% TFA. The remaining peptide at each time point was quantified by reversed-phase HPLC (RP-HPLC; Waters). 100% represents the amount of peptide detected at time point 0 calculated as the area under the peptide peak. A stability rate of each peptide was calculated by a nonlinear regression (one-phase exponential decay) of the degradation profile obtained over a 60-minute incubation [35, 44]. Peptides incubated in buffer without cell extracts were used as controls.

Row | Compound | stability rate at pH4.0 relative to pH7.4 [2] | change of B57-KF11 CTL responses upon inhibitor pretreatment, decrease [3] | change of B57-TW10 CTL responses upon inhibitor pretreatment, decrease [3] | change of B57-KF11 cross-presentation (CTL response) upon inhibitor pretreatment, increase [4] | also measured
1 | CC[C@H](C)[C@H](NC(=O)[C@H](CCCCN)NC(=O)[C@H](CCC(=O)O)NC(=O)[C@H](Cc1c[nH]c2ccccc12)NC(=O)[C@@H](N)CCCNC(=N)N)C(=O)N[C@@H](CCCNC(=N)N)C(=O)N[C@@H](CC(C)C)C(=O)N[C@@H](CCCNC(=N)N)C(=O)N1CCC[C@H]1C(=O)NCC(=O)NCC(=O)N[C@@H](CCCCN)C(=O)N[C@@H](CCCCN)C(=O)N[C@@H](CCCCN)C(=O)N[C@@H](Cc1ccc(O)cc1)C(=O)N[C@@H](CCCCN)C(=O)N[C@@H](CC(C)C)C(=O)O [HIV-1 p17-derived peptide] |  |  |  |  | degradation of A03-RK9 within the p17-derived peptide [1]: minimal degradation
2 | CC[C@H](C)[C@H](NC(=O)[C@@H](NC(=O)[C@H](CCC(=O)O)NC(=O)[C@@H]1CCCN1C(=O)[C@H](CO)NC(=O)[C@H](Cc1ccccc1)NC(=O)[C@H](C)NC(=O)[C@@H](N)CCCCN)C(C)C)C(=O)N1CCC[C@H]1C(=O)N[C@@H](CCSC)C(=O)N[C@@H](Cc1ccccc1)C(=O)O [B57-KF11] | dramatically reduced |  |  |  | half-life ([2]; pH 4, degradation buffer pH4.0, 37°C, read-out: half-life at pH4.0): 1.9 min; half-life ([2]; pH 7.4, degradation buffer pH7.4, 37°C, read-out: half-life at pH7.4): 20 min; fold faster degraded at pH4.0 than at pH7.4 ([2]; immature DC whole cell extract, 37°C, ratio of half-lives): 10 fold
3 | CC(C)C[C@@H](C=O)NC(=O)[C@H](CC(C)C)NC(=O)[C@H](CC(C)C)NC(=O)OCc1ccccc1 [MG132] (Cbz-Leu-Leu-Leu-aldehyde) |  | 2 fold | 3 fold | 4 fold | change of B57-ISW9 cross-presentation upon inhibitor pretreatment [3]: not affected; change of B57-TW10-specific CTL responses upon inhibitor pretreatment, decrease ([4]; immature DCs pre-incubated 45 minutes with 10μM MG132 before p24 protein): approximately 3 fold; change of B57-ISW9 cross-presentation (CTL response) upon inhibitor pretreatment, increase [4]: 43 fold
4 | ISPRTLNAW [B57-ISW9] | dramatically reduced |  |  |  | 
5 | CC[C@H](C)[C@H](NC(=O)[C@H]([C@@H](C)CC)N(C)C(C)=O)C(=O)N[C@H](C(=O)N[C@@H](CC(C)C)C(=O)[C@@]1(C)CO1)[C@@H](C)O [epoxomicin] |  | 2 fold | 3 fold | 11 fold | 
6 | FSPEVIPMF [B57-FF9] | dramatically reduced |  |  |  | stability rate compared with overlapping epitope B57-KF11 ([5]; extracts of DCs and Møs, RP-HPLC, three independent experiments): comparable
7 | CC[C@H](C)[C@H](NC(=O)[C@H](CCC(N)=O)NC(=O)[C@H](CCC(=O)O)NC(=O)[C@H](CCC(N)=O)NC(=O)[C@H](CC(C)C)NC(=O)[C@H](CC(N)=O)NC(=O)[C@H](CO)NC(=O)[C@@H](N)[C@@H](C)O)C(=O)N[C@@H](C)C(=O)N[C@@H](Cc1c[nH]c2ccccc12)C(=O)O |  |  |  |  | cytosolic and lysosomal stability relative to B57-TW10, fold reduced ([5]; 1nmol peptide, 15μg immature DC or Mø extracts, pH7.4 and pH4.0 (both compartments), RP-HPLC stability rate, mean of three independent experiments): 7- to 8 fold
8 | CC(C)C[C@H](NC(=O)[C@H]1O[C@@H]1C(=O)O)C(=O)NCCCCN=C(N)N [E64] |  | did not affect | did not affect | no effect | change of B57-ISW9 cross-presentation upon inhibitor pretreatment [3]: did not affect; change of B57-ISW9 cross-presentation (CTL response) upon inhibitor pretreatment, increase [4]: no effect
9 | CC[C@H](C)[C@H](NC(=O)[C@H](C)N)C(=O)N[C@@H](Cc1ccccc1)C(=O)N[C@@H](CCC(N)=O)C(=O)N[C@@H](CO)C(=O)N[C@@H](CO)C(=O)N[C@@H](CCSC)C(=O)N[C@H](C(=O)N[C@@H](CCCCN)C(=O)O)[C@@H](C)O [A11-ATK9] | dramatically reduced |  |  |  | 

Source: publication PMC4364612
